Measured values from US20060270640A1, “Method of preventing, medicating, and/or treating hypocalcemia of domestic mammal” (Mercian Corporation, priority 2004, published 2006).
Several values for one entry are separate records, joined by “and”; a condition that tells them apart may be missing. Equal entries are not always repeated. Where two headings read alike, the source gives them in different places.

Columns and labels:
[1] = Dose-response test of 1,25-(OH)2D3, intravaginal vs intravenous: 1,25-(OH)2D3 in plasma and bioavailability (Example 3); type: in vivo, cow; details: for concentration at 0 h: read-out: 1,25-(OH)2D3 level in plasma
Experimental: (§1) Hereinafter, the present invention will further be described with reference to Examples and Comparative Example. However, the present invention is not intended to be limited to them by any means. In the examples described below, a 1,25-(OH)2D3 concentration in plasma was determined using a radioimmunoassay kit (1,25-(OH)2D RIA kit, Immunodiagnostic Systems Limited, UK). The Ca concentrations, inorganic phosphorus (iP) concentrations, and magnesium (Mg) concentrations in plasma and urine were determined by orthocresolphthalein complexone (O-CPC), molybdenum (Mo), and xylidyl blue methods, respectively. A creatinine concentration in urine was determined by a Jaffe method. Calcium (Ca), inorganic phosphorus (iP), and magnesium (Mg) concentrations in urine were indicated in the ratios relative to creatinine (Cre) (Ca/Cre, iP/Cre, and Mg/Cre, respectively).
(§2) The dose-response test of 1,25-(OH)2D3 by an intravaginal administration route was performed with five 3 to 9-year-old ovariectomized Holstein cows having body weights of 616 to 804 kg as test animals.
(§3) The cows were hitched to a partition after and provided with 5.3 kg of timothy hay, 0.18 kg of alfalfa hay, 0.71 kg of beet pulp pellet, and 1.7 kg of commercially-available grain mix on a daily basis. The cows were measured on a DM basis and freely provided with water. A daily mineral intake was set to 48.4 g for calcium, 20.2 g of inorganic phosphorus, and 12.7 g for magnesium, which sufficiently exceeded the NRC recommendation.
(§4) To the five cows, 1,25-(OH)2D3 was respectively administered at 0.125, 0.25, 0.5, and 1.0 μg/kg (by body weight) as an intravaginal dose level and 1.0 μg/kg (by body weight) as an intravenous injection dose level at an interval of 2 weeks or more according to a 5×5 Latin square design.
(§5) The 1,25-(OH)2D3 (manufactured by Mercian Corporation) used was in the form of crystalline powder, which was dissolved in 99% ethanol at 200 μg/mL and cryopreserved at −20° C. until use.
(§6) A drug composed of 5 mL of 20% ethanol solution containing 1,25-(OH)2D3 at 0.125, 0.25, 0.5, or 1.0 μg/kg (by body weight) was administered to a vaginal lumen using a Split Universal Sheath (IMV Int. CO., France) by a rectovaginal cavity method. The vulva was then bonded with an adhesive in order to prevent the 1,25-(OH)2D3 solution from being unintentionally excreted from the vaginal lumen. Intravenous administration was performed using a cannula (14-ga cannula for animals, manufactured by Nipro Medical Industries Ltd.) mounted in advance for the collection of a blood sample.
(§7) A heparinized blood sample was collected through the cannula immediately before the administration of 1,25-(OH)2D3 (0 hour) and at 2, 4, 6, 12, 24, 48, 72, 96, and 120 hours after administration.
(§8) Next, the blood was immediately centrifuged, and 1,25-(OH)2D3, calcium, inorganic phosphorus, and magnesium concentrations in plasma were determined.
It is noted that the bioavailability was determined by comparing an area under the plasma concentration-time curve (AUC) between the cow to which 1,25-(OH)2D3 was intravaginally administered at 1.0 μg/kg (by body weight) and the cow to which the same amount of 1,25-(OH)2D3 was intravenously administered, and a AUC ratio between intravaginal administration and intravenous administration was indicated by percentage.

[2] = Dose-response test of 1,25-(OH)2D3, intravaginal vs intravenous: calcium, inorganic phosphorus, magnesium in plasma (Example 3); type: in vivo, cow
Experimental: as §1, §2, §3, §4, §5, §6, §7, §8

[3] = Dose-response test of 1,25-(OH)2D3: Ca/Cre, iP/Cre, Mg/Cre in urine (Example 3); type: in vivo, cow; details: for iP/Cre in urine: vs immediately before administration
Experimental: as §1, §2, §3, §4, §5, §6
Urine were collected by urethral catheterization simultaneously with the collection of blood samples from the cows that underwent the intravaginal administration of 1,25-(OH)2D3 at 0.125 and 1.0 μg/kg (by body weight) and the intravenous injection of 1,25-(OH)2D3at 1.0 μg/kg (by body weight), to determine creatinine, calcium, inorganic phosphorus, and magnesium concentrations in the urine. Plasma and urine samples were cryopreserved at −20° C. until analysis.

[4] = oral administration, high dose; cited from earlier work
[5] = intravenous, four dose levels (30, 90, 270, and 600 μg); increase not directly related to dose; cited from earlier work
[6] = intravaginal, four doses 0.125-1.0 μg/kg
[7] = 0 hour, intravaginal 0.125 μg/kg
[8] = 0 hour, intravaginal 0.25 μg/kg
[9] = 24 hours after intravaginal 0.125 μg/kg
[10] = 24 hours after intravaginal 1.0 μg/kg

Compound: C=C1/C(=C\C=C2/CCC[C@]3(C)[C@@H]([C@H](C)CCCC(C)(C)O)CC[C@@H]23)C[C@@H](O)C[C@@H]1O [1,25-(OH)2D3, 1,25-dihydroxyvitamin D3]
- 1,25-(OH)2D3 level in plasma, peak ([1]; 2 hours after intravaginal 0.125 μg/kg): 2219.3 ± 812.0 pg/mL
- 1,25-(OH)2D3 level in plasma, peak ([1]; 2 hours after intravaginal 0.25 μg/kg): 3448.7 ± 737.9 pg/mL
- 1,25-(OH)2D3 level in plasma, peak ([1]; 2 hours after intravaginal 0.5 μg/kg): 6388.5 ± 1127.4 pg/mL
- 1,25-(OH)2D3 level in plasma, peak ([1]; 2 hours after intravaginal 1.0 μg/kg): 12315.7 ± 2288.3 pg/mL
- bioavailability ([1]; female, Holstein, bovine, plasma, other: intravaginal, 1 μg/kg, intravaginal vs intravenous, ovariectomized cows, read-out: bioavailability, share of 1,25-(OH)2D3 administered to the vaginal lumen entering the circulatory system): ~93%
- concentration at 0 h ([1]; female, Holstein, bovine, plasma, other: intravaginal, intravaginal 0.125 μg/kg, ovariectomized cows): 7.4 ± 5.3 pg/mL
- concentration at 0 h ([1]; female, Holstein, bovine, plasma, other: intravaginal, intravaginal 0.25 μg/kg): 6.5 ± 1.3 pg/mL
- concentration at 0 h ([1]; female, Holstein, bovine, plasma, other: intravaginal, intravaginal 0.5 μg/kg): 8.7 ± 5.6 pg/mL
- concentration at 0 h ([1]; female, Holstein, bovine, plasma, other: intravaginal, intravaginal 1.0 μg/kg): 6.6 ± 1.6 pg/mL
- individual bioavailability (AUC ratio intravaginal/intravenous) ([1]; intravaginal 1.0 μg/kg vs intravenous 1.0 μg/kg, one value per each of the five cows): 71.1% and 124.2% and 113.3% and 90.0% and 66.5%
- time of peak 1,25-(OH)2D3 level in plasma after administration ([1]; intravaginal 0.125, 0.25, 0.5 and 1.0 μg/kg): 2 h
- dose dependence of absorption from the vaginal wall [1, 6]: absorbed from the vaginal wall proportionately with a dose
- calcium concentration in plasma [2, 7]: 8.9 ± 0.5 mg/dL
- inorganic phosphorus concentration in plasma [2, 7]: 5.3 ± 1.0 mg/dL
- magnesium concentration in plasma [2, 7]: 2.2 ± 0.2 mg/dL
- calcium concentration in plasma [2, 8]: 8.9 ± 0.4 mg/dL
- inorganic phosphorus level in plasma [2, 8]: 4.7 ± 0.6 mg/dL
- magnesium concentration in plasma [2, 8]: 2.0 ± 0.2 mg/dL
- calcium concentration in plasma ([2]; 0 hour, intravaginal 0.5 μg/kg): 8.9 ± 0.2 mg/dL
- inorganic phosphorus concentration in plasma ([2]; 0 hour, intravaginal 0.5 μg/kg): 5.3 ± 0.6 mg/dL
- magnesium concentration in plasma ([2]; 0 hour, intravaginal 0.5 μg/kg): 2.2 ± 0.2 mg/dL
- calcium concentration in plasma ([2]; 0 hour, intravaginal 1.0 μg/kg): 8.8 ± 0.7 mg/dL
- inorganic phosphorus concentration in plasma ([2]; 0 hour, intravaginal 1.0 μg/kg): 5.4 ± 1.3 mg/dL
- magnesium concentration in plasma ([2]; 0 hour, intravaginal 1.0 μg/kg): 2.1 ± 0.1 mg/dL
- calcium concentration in plasma ([2]; 0 hour, intravenous 1.0 μg/kg): 8.8 ± 0.5 mg/dL
- inorganic phosphorus concentration in plasma ([2]; 0 hour, intravenous 1.0 μg/kg): 5.2 ± 1.3 mg/dL
- magnesium concentration in plasma ([2]; 0 hour, intravenous 1.0 μg/kg): 2.2 ± 0.2 mg/dL
- inorganic phosphorus concentration in plasma ([2]; 12 hour after intravenous 1.0 μg/kg): 7.2 ± 0.8 mg/dL
- inorganic phosphorus level in plasma ([2]; 12 hours (start of 12 to 120 hours) after intravaginal 0.25 μg/kg): 6.7 ± 0.9 mg/dL
- magnesium concentration in plasma ([2]; 12 hours after intravaginal 0.5 μg/kg): 1.9 ± 0.2 mg/dL
- inorganic phosphorus concentration in plasma [2, 9]: 7.7 ± 0.8 mg/dL
- magnesium concentration in plasma [2, 9]: 1.9 ± 0.1 mg/dL
- magnesium concentration in plasma ([2]; 24 hours after intravaginal 0.25 μg/kg): 1.8 ± 0.1 mg/dL
- inorganic phosphorus concentration in plasma ([2]; 24 hours after intravaginal 0.5 μg/kg): 7.9 ± 0.9 mg/dL
- inorganic phosphorus concentration in plasma [2, 10]: 8.0 ± 1.2 mg/dL
- magnesium concentration in plasma [2, 10]: 1.8 ± 0.2 mg/dL
- magnesium concentration in plasma ([2]; 24 hours after intravenous 1.0 μg/kg): 1.9 ± 0.3 mg/dL
- inorganic phosphorus concentration in plasma, peak ([2]; 24 hours after intravenous 1.0 μg/kg (start of peak period)): 9.1 ± 1.6 mg/dL
- calcium concentration in plasma, peak ([2]; 48 hours after intravaginal 0.125 μg/kg, significantly high 12 to 120 hours): 11.1 ± 0.9 mg/dL
- calcium concentration in plasma, peak ([2]; 48 hours after intravaginal 0.25 μg/kg, significantly high 12 to 120 hours): 11.2 ± 0.7 mg/dL
- calcium concentration in plasma, peak ([2]; 48 hours after intravaginal 0.5 μg/kg, significantly high 6 to 120 hours): 11.5 ± 0.6 mg/dL
- calcium concentration in plasma, peak ([2]; 48 hours after intravaginal 1.0 μg/kg, significantly high 6 to 120 hours): 12.0 ± 0.6 mg/dL
- inorganic phosphorus level in plasma ([2]; 120 hours (end of 12 to 120 hours) after intravaginal 0.25 μg/kg): 8.6 ± 1.2 mg/dL
- magnesium concentration in plasma ([2]; 120 hours after intravaginal 0.125 μg/kg): 1.8 ± 0.3 mg/dL
- magnesium concentration in plasma ([2]; 120 hours after intravaginal 0.25 μg/kg): 1.7 ± 0.2 mg/dL
- magnesium concentration in plasma ([2]; 120 hours after intravaginal 0.5 μg/kg): 1.7 ± 0.2 mg/dL
- magnesium concentration in plasma ([2]; 120 hours after intravaginal 1.0 μg/kg): 1.7 ± 0.4 mg/dL
- magnesium concentration in plasma ([2]; 120 hours after intravenous 1.0 μg/kg): 1.7 ± 0.2 mg/dL
- inorganic phosphorus concentration in plasma, peak ([2]; end of peak period 'from 24 hours to 12 hours' after intravenous 1.0 μg/kg): 9.0 ± 1.2 mg/dL
- dose-relationship of changes in calcium, inorganic phosphorus and magnesium concentrations in plasma [2, 6]: no dose-relationship
- calcium concentration in plasma, peak ([2]; intravenous 1.0 μg/kg): 11.5 ± 1.2 mg/dL
- Ca/Cre, iP/Cre and Mg/Cre in urine ([3]; intravaginal 0.125 μg/kg): no influence
- Ca/Cre in urine ([3]; via the vagina 1.0 μg/kg, at 24 hours after administration): significantly rose
- Mg/Cre in urine ([3]; via the vagina 1.0 μg/kg, from 6 hours to 12 hours after administration): significantly high
- iP/Cre in urine ([3]; via the vagina 1.0 μg/kg, from 48 hours to 120 hours): significantly high
- Mg/Cre in urine ([3]; via the vein 1.0 μg/kg, at 6 hours after administration): significantly high
- Ca/Cre in urine ([3]; via the vein 1.0 μg/kg, at 12 hours and 24 hours after administration): significantly rose
- iP/Cre in urine ([3]; via the vein 1.0 μg/kg, from 72 hours to 120 hours): significantly high
- proportional rise in the AUC in serum with an increase in a dose [4]: not observed
- excretion of calcium into urine [5]: increases
